According to patent publication US12698289B2, “Solid forms of pharmaceutically acceptable salts of (S)-(2-ethyl-5-fluoro-4-hydroxyphenyl)-1H-indazol-3-yl)-4,6-dihydropyrrolo[3,4-d]imidazol-5(1H)-yl)(3-hydroxypyrrolidin-1-yl)methanone as JAK inhibitors” (HENAN MEDINNO PHARMACEUTICAL TECHNOLOGY CO., LTD., priority 2019, dated 2026):

System: human T cells
Assay: IL-2 induced human T cell proliferation assay (Celltiter Glo)
Details: HT, 72 h, read-out: IC50 (nM), human T cell proliferation
Text: The purpose of this example is to assay the activity of the compound in the JAK cell activity assay-human T cell proliferation assay.

With `CCc1cc(O)c(F)cc1-c1ccc2c(-c3nc4c([nH]3)CN(C(=O)N3CC[C@H](O)C3)C4)n[nH]c2c1` [Compound of formula (I), (S)-(2-(6-(2-ethyl-5-fluoro-4-hydroxyphenyl)-1H-indazol-3-yl)-4,6-dihydropyrrolo[3,4-d]imidazol-5-(1H)-yl) (3-hydroxy pyrrolidin-1-yl) ketone] the IC50 was 13 nM.
